Where two headings read alike, the source gives them in different places.
Key:
[1] = system: acutely dissociated and purified rat OPCs; experiment: Acute OL differentiation assay (MBP expression/cell, immunofluorescent image quantification); format: cell-based; details: for activation at 0.08 µM: read-out: 0.08 uM (% Quet)
Procedure, shortened: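 Oligodendrocyte precursor cells were enriched from P6-P7 Sprague–Dawley rat brains by immunopanning (RAN-2 and GalC depletion, O4 selection), plated at 5000 cells/well in serum-free, mitogen-free differentiation media on PDL/laminin 96-well view plates, centrifuged at 200×g, and pre-incubated 1–2 h before test compounds were added in quadruplicate. On DIV4, cells were fixed, stained for MBP and DAPI, imaged automatically, and MBP expression per cell was quantified.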

expanded OPCs = experiment: cells; details: for 0.1 µM (% DMSO) / 1 µM (% DMSO) / 10 µM (% DMSO): alamarBlue viability of expanded OPCs, relative to DMSO control; for 0.1 µM (% DMSO): compound at 0.1 µM; for 1 µM (% DMSO): compound at 1 µM; for 10 µM (% DMSO): compound at 10 µM; for viability at 0.1 µM / viability at 1 µM / viability at 10 µM: Rattus norvegicus, 72 h
Procedure, shortened: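 Expanded OPCs seeded at 10,000 cells/well in differentiation media, then exposed to NCC library compounds at 10, 1 and 0.1 µM (quadruplicate, 0.1% DMSO) for three days. Viability read as alamarBlue fluorescence (560/590 nm) after 4 h at 37 °C; tunicamycin 5 ng/ml served as toxicity control.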

[2] = Rattus norvegicus, test compound at 2 uM, MBP expression relative to quetiapine, NCC library screen, sheet "All OLga data", read-out: 2 uM (% Quet)
[3] = Rattus norvegicus, test compound at 10 uM, MBP expression relative to quetiapine, NCC library screen, sheet "All OLga data", read-out: 10 uM (% Quet)
[4] = Rattus norvegicus, 2 uM test compound, relative to quetiapine, sheet "All OLga data", read-out: OL differentiation, 2 uM (% Quet)
[5] = Rattus norvegicus, 10 uM test compound, relative to quetiapine, sheet "All OLga data", read-out: OL differentiation, 10 uM (% Quet)
[6] = read-out: 0.1 µM (% DMSO), alamarBlue viability of expanded OPCs, compound at 0.1 µM, sheet All Tox data
[7] = read-out: 1 µM (% DMSO), alamarBlue viability of expanded OPCs, compound at 1 µM, sheet All Tox data
[8] = read-out: 10 µM (% DMSO), alamarBlue viability of expanded OPCs, compound at 10 µM, sheet All Tox data
[9] = Rattus norvegicus, test compound at 2 uM, NCC library screen, sheet "All OLga data", relative to quetiapine, read-out: 2 uM (% Quet)
[10] = Rattus norvegicus, test compound at 10 uM, NCC library screen, sheet "All OLga data", relative to quetiapine, read-out: 10 uM (% Quet)
[11] = Rattus norvegicus, 0.4 uM test compound, relative to quetiapine, sheet "All OLga data", read-out: OL differentiation, 0.4 uM (% Quet)
[12] = read-out: 0.1 µM (% DMSO), alamarBlue viability, NCC library compound at 0.1 µM, sheet "All Tox data"
[13] = read-out: 1 µM (% DMSO), alamarBlue viability, NCC library compound at 1 µM, sheet "All Tox data"
[14] = read-out: 10 µM (% DMSO), alamarBlue viability, NCC library compound at 10 µM, sheet "All Tox data"

OC(CCN1CCCCC1)(c1ccccc1)C1CCCCC1 (centres unmarked) [Trihexyphenidyl] was tested, and the activation at 2 µM [1, 2] was -19.1%, the activation at 10 µM [1, 3] was -45.6% and the “0.1 µM (% DMSO)” value (expanded OPCs) was 90.6 % DMSO. For the same molecule, the “1 µM (% DMSO)” value (expanded OPCs) was 84.6 % DMSO and the “10 µM (% DMSO)” value (expanded OPCs) was 67.7 % DMSO.

Nc1ccc(O)c(C(=O)O)c1 [Mesalamine] gave an activation at 2 µM [1, 4] of -9.1%, an activation at 10 µM [1, 5] of -0.34% and a viability at 0.1 µM (expanded OPCs; [6]) of 86.2%. For the same molecule, the viability at 1 µM (expanded OPCs; [7]) was 92.2% and the viability at 10 µM (expanded OPCs; [8]) was 87.2%.

In the case of Oc1c(Cl)cc(Cl)c(Cl)c1Cc1c(O)c(Cl)cc(Cl)c1Cl [Hexachlorophene], the activation at 0.08 µM ([1]; Rattus norvegicus) is reported as -122%, the “0.1 µM (% DMSO)” value (expanded OPCs) is reported as 115.4 % DMSO and the “1 µM (% DMSO)” value (expanded OPCs) is reported as 10.8 % DMSO. The “10 µM (% DMSO)” value (expanded OPCs) was 9.0 % DMSO.

CC(=O)S[C@@H]1CC2=CC(=O)CC[C@]2(C)[C@H]2CC[C@@]3(C)[C@@H](CC[C@@]34CCC(=O)O4)[C@H]12 [Spironolactone] was tested, and the activation at 2 µM [1, 9] was -13%, the activation at 10 µM [1, 10] was -65.1% and the “0.1 µM (% DMSO)” value (expanded OPCs) was 88.4 % DMSO. The “1 µM (% DMSO)” value (expanded OPCs) was 80.5 % DMSO and the “10 µM (% DMSO)” value (expanded OPCs) was 61.8 % DMSO.

For COC(=O)C1=C(C)NC(C)=C(C(=O)OC2CCCN(Cc3ccccc3)C2)C1c1cccc([N+](=O)[O-])c1 (centres unmarked) [Benidipine], the activation at 0.4 µM [1, 11] was 7.1%, the activation at 2 µM [1, 4] was 3.1% and the viability at 0.1 µM (expanded OPCs; [6]) was 84.6%. For the same molecule, the viability at 1 µM (expanded OPCs; [7]) was 93% and the viability at 10 µM (expanded OPCs; [8]) was 11.6%.

In the case of CN(C)CCc1c[nH]c2ccc(C[C@H]3COC(=O)N3)cc12 [Zolmitriptan], the activation at 2 µM [1, 9] is reported as 4.1%, the activation at 10 µM [1, 10] is reported as 4.7% and the viability at 0.1 µM (expanded OPCs; [12]) is reported as 85.9%. It also gave a viability at 1 µM (expanded OPCs; [13]) of 89.9% and a viability at 10 µM (expanded OPCs; [14]) of 95.5%.

For CC[C@H]1OC(=O)[C@H](C)[C@@H](O[C@H]2C[C@@](C)(OC)[C@@H](O)[C@H](C)O2)[C@H](C)[C@@H](O[C@@H]2O[C@H](C)C[C@H](N(C)C)[C@H]2O)[C@](C)(O)C[C@@H](C)CN(C)[C@H](C)[C@@H](O)[C@]1(C)O [Azithromycin], the activation at 0.08 µM ([1]; Rattus norvegicus, test compound at 0.08 uM, MBP expression relative to quetiapine, NCC library screen, sheet "All OLga data") was 8.2%, the activation at 0.4 µM ([1]; Rattus norvegicus, test compound at 0.4 uM, MBP expression relative to quetiapine, NCC library screen, sheet "All OLga data", read-out: 0.4 uM (% Quet)) was -7.2% and the “0.1 µM (% DMSO)” value (expanded OPCs) was 76.1 % DMSO. For the same molecule, the “1 µM (% DMSO)” value (expanded OPCs) was 40.6 % DMSO and the “10 µM (% DMSO)” value (expanded OPCs) was 25.1 % DMSO.

In the case of CC(C)(O)c1ccccc1CC[C@@H](SCC1(CC(=O)O)CC1)c1cccc(/C=C/c2ccc3ccc(Cl)cc3n2)c1 [Montelukast], the activation at 0.4 µM [1, 11] is reported as 12.9%, the activation at 2 µM [1, 4] is reported as -31.7% and the viability at 0.1 µM (expanded OPCs; [12]) is reported as 95.5%. The viability at 1 µM (expanded OPCs; [13]) was 83% and the viability at 10 µM (expanded OPCs; [14]) was 11%.

O=C1CN(/N=C/c2ccc([N+](=O)[O-])o2)C(=O)N1 [Nitrofurantoin] was tested, and the activation at 2 µM [1, 9] was -26.2%, the activation at 10 µM [1, 10] was -72.2% and the “0.1 µM (% DMSO)” value (expanded OPCs) was 101.2 % DMSO. The “1 µM (% DMSO)” value (expanded OPCs) was 101.9 % DMSO and the “10 µM (% DMSO)” value (expanded OPCs) was 87.2 % DMSO.

CC(C)[C@H](N)C(=O)OCCOCn1cnc2c(=O)[nH]c(N)nc21 [Valaciclovir] was tested, and the activation at 2 µM [1, 4] was -1.4%, the activation at 10 µM [1, 5] was -8.7% and the viability at 0.1 µM (expanded OPCs; [6]) was 91.4%. The viability at 1 µM (expanded OPCs; [7]) was 98% and the viability at 10 µM (expanded OPCs; [8]) was 102%.

Molecule C[C@@H]1C[C@H]2[C@@H]3CCC4=CC(=O)C=C[C@]4(C)[C@@]3(F)[C@@H](O)C[C@]2(C)[C@H]1C(=O)CO [Desoximetasone] has an activation at 2 µM [1, 9] of -17.9%, an activation at 10 µM [1, 10] of -33% and a viability at 0.1 µM (expanded OPCs; [12]) of 111%. For the same molecule, the viability at 1 µM (expanded OPCs; [13]) was 114% and the viability at 10 µM (expanded OPCs; [14]) was 111%.

For Cc1cn([C@H]2C[C@H](N=[N+]=[N-])[C@@H](CO)O2)c(=O)[nH]c1=O [Zidovudine], the activation at 2 µM [1, 2] was -29.4%, the activation at 10 µM [1, 3] was -41.2% and the “0.1 µM (% DMSO)” value (expanded OPCs) was 89.6 % DMSO. The “1 µM (% DMSO)” value (expanded OPCs) was 85.7 % DMSO and the “10 µM (% DMSO)” value (expanded OPCs) was 83.9 % DMSO.

O=C1[C@H]2CCCC[C@H]2C(=O)N1CCCCN1CCN(c2nsc3ccccc23)CC1 [Perospirone, reference compound] showed an activation at 2 µM [1, 4] of 84.5%, an activation at 10 µM [1, 5] of 18.7% and an EC50 ([1]; Rattus norvegicus, average EC50 for induction of OL differentiation from independent biological replicates, eight concentrations) of 100 nM. For the same molecule, the “hit in OL differentiation assay, MRF-TMC” value ([1]; ● = confirmed hit in this paper's assay) was “●”, the viability at 0.1 µM (expanded OPCs; [6]) was 110% and the viability at 1 µM (expanded OPCs; [7]) was 164%. The viability at 10 µM (expanded OPCs; [8]) was 132%.

Cc1ccc(-c2cc(C(F)(F)F)nn2-c2ccc(S(N)(=O)=O)cc2)cc1 [Celecoxib] was tested, and the activation at 2 µM [1, 2] was 14.8%, the activation at 10 µM [1, 3] was 9% and the “0.1 µM (% DMSO)” value (expanded OPCs) was 94.3 % DMSO. For the same molecule, the “1 µM (% DMSO)” value (expanded OPCs) was 89.6 % DMSO and the “10 µM (% DMSO)” value (expanded OPCs) was 87.2 % DMSO.

Reference: paper PMC5011342, “A high throughput drug screening assay to identify compounds that promote oligodendrocyte differentiation using acutely dissociated and purified oligodendrocyte precursor cells” (BMC Research Notes, 2016)
